Experimental data taken from patent US12528815B2, “5-amino-8-(4-pyridyl)-[1,2,4]triazolo[4,3-c]pyrimidin-3-one compounds for use against cancer” (Nxera Pharma UK Limited, priority 2020, dated 2026).

Assays:
[1] = target: T1, human adenosine A2A receptor (Homo sapiens, UniProt P29274); experiment: Inhibition binding assay, human adenosine A2A receptor membranes, [3H]ZM241385; details: 1 nM [3H]ZM241385, HEK293-hA2A membranes, 25° C., 1 h; IC50 converted to Ki with Cheng-Prusoff; read-out: A2A pKi (converted)
T1 construct: expressed in transfected cells; host or cells: HEK293 cells infected with BacMam
In short: (§1)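 Membranes from BacMam-infected HEK293 cells (0.2 μg A2A, 1.4 μg A1) incubated 1 h at 25° C with test compound and 1 nM [3H]ZM241385 (A2A; 50 mM Tris-HCl pH 7.4) or [3H]DPCPX (A1; plus 100 mM NaCl, 10 mM MgCl2). Nonspecific: 1 μM CGS15943 or DPCPX. Filtration, scintillation; IC50 converted to Ki via Cheng-Prusoff.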

[2] = target: T2, human adenosine A1 receptor (Homo sapiens, UniProt P30542); experiment: Inhibition binding assay, human adenosine A1 receptor membranes, [3H]DPCPX; details: 1 nM [3H]DPCPX, 25° C., 1 h; IC50 converted to Ki with Cheng-Prusoff; read-out: A1 pKi (converted)
T2 construct: expressed in transfected cells; host or cells: HEK293 cells infected with BacMam (the same paragraph also labels the preparation CHO-hA1)
T2 sequence (P30542 1-326): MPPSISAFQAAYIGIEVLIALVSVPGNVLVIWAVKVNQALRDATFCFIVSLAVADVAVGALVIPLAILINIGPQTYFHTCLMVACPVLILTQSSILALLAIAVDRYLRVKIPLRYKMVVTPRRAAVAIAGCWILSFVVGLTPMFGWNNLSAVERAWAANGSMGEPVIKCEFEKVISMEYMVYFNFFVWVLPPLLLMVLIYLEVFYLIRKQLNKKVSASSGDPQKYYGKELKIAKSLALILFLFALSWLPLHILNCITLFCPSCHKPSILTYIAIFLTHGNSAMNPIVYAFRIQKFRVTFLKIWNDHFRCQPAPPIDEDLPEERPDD
In short: as §1

T1 sequence (P29274 whole entry): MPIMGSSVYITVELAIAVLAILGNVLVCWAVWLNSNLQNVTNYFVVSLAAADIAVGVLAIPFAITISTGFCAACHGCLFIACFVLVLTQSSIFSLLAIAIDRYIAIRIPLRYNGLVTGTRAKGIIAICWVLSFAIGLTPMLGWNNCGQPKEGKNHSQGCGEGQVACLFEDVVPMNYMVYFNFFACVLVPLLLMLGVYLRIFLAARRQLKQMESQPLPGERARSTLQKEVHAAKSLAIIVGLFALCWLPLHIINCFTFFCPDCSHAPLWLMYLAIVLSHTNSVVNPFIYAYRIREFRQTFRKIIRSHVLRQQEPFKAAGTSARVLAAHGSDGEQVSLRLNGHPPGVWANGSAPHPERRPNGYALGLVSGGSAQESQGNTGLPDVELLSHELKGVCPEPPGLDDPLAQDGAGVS

Ki [1] [nM]	Ki [2] [nM]	Compound
1.58	> 3980	COc1cc(-c2c(-c3ccc(F)cc3)nc(N)n3c(=O)n(CCC(F)(F)F)nc23)cc(CO)n1 [Example 2-47, 5-amino-7-(4-fluorophenyl)-8-[2-(hydroxymethyl)-6-methoxy-4-pyridyl]-2-(3,3,3-trifluoropropyl)-[1,2,4]triazolo[4,3-c]pyrimidin-3-one]
10	794	Cc1cc(-c2c(-c3ccccc3)nc(N)n3c(=O)n(CC(CO)CO)nc23)cc(C)n1 [Example 2-24, 5-amino-8-(2,6-dimethyl-4-pyridyl)-2-[3-hydroxy-2-(hydroxymethyl)propyl]-7-phenyl-[1,2,4]triazolo[4,3-c]pyrimidin-3-one]
2	1000	Cc1cc(-c2c(-c3ccccc3)nc(N)n3c(=O)n(CCC(F)F)nc23)cc(C)n1 [Example 2-17, 5-amino-2-(3,3-difluoropropyl)-8-(2,6-dimethyl-4-pyridyl)-7-phenyl-[1,2,4]triazolo[4,3-c]pyrimidin-3-one]

More lines, now with the values behind:

Compound	Ki [1] [nM]	Ki [2] [nM]
Cc1cc(-c2c(-c3ccccc3)nc(N)n3c(=O)n(CC4CCCCO4)nc23)cc(CO)n1 (single isomer, unassigned) [Example 2-91-iso-1, 5-amino-8-[2-(hydroxymethyl)-6-methyl-4-pyridyl]-7-phenyl-2-(tetrahydropyran-2-ylmethyl)-[1,2,4]triazolo[4,3-c]pyrimidin-3-one]	1.26	631
CCOc1ccccc1Cn1nc2c(-c3cc(C)nc(C)c3)c(-c3ccccc3)nc(N)n2c1=O [Example 1-25, 5-amino-8-(2,6-dimethyl-4-pyridyl)-2-[(2-ethoxyphenyl)methyl]-7-phenyl-[1,2,4]triazolo[4,3-c]pyrimidin-3-one]	0.2	6.31
COc1cc(-c2c(-c3ccccc3)nc(N)n3c(=O)n(Cc4ccc(C)cn4)nc23)cc(CO)n1 [Example 1-66, 5-amino-8-[2-(hydroxymethyl)-6-methoxy-4-pyridyl]-2-[(5-methyl-2-pyridyl)methyl]-7-phenyl-[1,2,4]triazolo[4,3-c]pyrimidin-3-one]	0.631	501
Cc1cc(-c2c(-c3ccccc3)nc(N)n3c(=O)n(CCc4ccccc4)nc23)cc(N2CCC2)n1 [Example 1-90, 5-amino-8-[2-(azetidin-1-yl)-6-methyl-4-pyridyl]-7-phenyl-2-(2-phenylethyl)-[1,2,4]triazolo[4,3-c]pyrimidin-3-one]	12.6	398
Cc1cc(-c2c(-c3ccccc3)nc(N)n3c(=O)n(CC4CCCS(=O)(=O)C4)nc23)cc(C)n1 (single isomer, unassigned) [Example 2-89-iso-2, 5-amino-8-(2,6-dimethyl-4-pyridyl)-2-[(1,1-dioxothian-3-yl)methyl]-7-phenyl-[1,2,4]triazolo[4,3-c]pyrimidin-3-one]	25.1	316
COc1ccc(Cn2nc3c(-c4cc(C)nc(C)c4)c(-c4ccccc4)nc(N)n3c2=O)cc1 [Example 1-3, 5-amino-8-(2,6-dimethyl-4-pyridyl)-2-[(4-methoxyphenyl)methyl]-7-phenyl-[1,2,4]triazolo[4,3-c]pyrimidin-3-one]	6.31	25.1
CCC(c1ccc(F)cn1)n1nc2c(-c3cc(C)nc(C)c3)c(-c3ccccc3)nc(N)n2c1=O (single isomer, unassigned) [Example 1-38-iso-2, 5-amino-8-(2,6-dimethyl-4-pyridyl)-2-[1-(5-fluoro-2-pyridyl)propyl]-7-phenyl-[1,2,4]triazolo[4,3-c]pyrimidin-3-one]	200	> 2000
Cc1cc(-c2c(-c3ccccc3)nc(N)n3c(=O)n(CCc4ccccc4)nc23)cc(Cl)n1 [Example 1-89, 5-amino-8-(2-chloro-6-methyl-4-pyridyl)-7-phenyl-2-(2-phenylethyl)-[1,2,4]triazolo[4,3-c]pyrimidin-3-one]	5.01	126
